According to patent US6833389B2, “Use of thiamphenicol and derivatives thereof for the preparation of pharmaceutical compositions useful in the treatment of Chlamydia pneumoniae infections” (Zambon Group S.p.A., priority 2000, dated 2004):
≈ marks a conversion by molar mass, not a printed value. Where two headings read alike, the source gives them in different places.

Columns and labels:
[1] = system: Chlamydia pneumoniae; test: MIC against Chlamydia pneumoniae strains in Hep-2 cell monolayers (inhibition of inclusion formation); format: cell-based
Method: Chlamydia pneumoniae TW183 and Chlamydia pneumoniae 2023 were obtained from American Type Culture Collection. The other strains (No. 9 isolated) were clinically isolated in the period 1997-1999. […] Monolayers of Hep-2 cells were prepared by seeding 2×10^5 cell/ml in EMEM with 10% fetal calf serum supplemented with L-glutammine, on 12 mm cover slips and left at 35° C., 5% CO2 for 24 to 48 hours for confluent growth. The growth medium was removed and Hep-2 monolayers were inoculated with the different strains at predetermined concentration calculated to give 3-5×10^2 inclusions for well. The monolayers, inoculated with Chlamydia pneumoniae were centrifuged at 1700 g for 60 minutes at 30° C. […] In positive control no antibiotic was added and negative control were considered wells not inoculated with Chlamydia pneumoniae. […] All tests were run in duplicate. The number of inclusions were counted and the MIC (the lowest concentration at which complete inhibition of inclusion formation was observed) was determined.

[2] = system: Chlamydia pneumoniae; settings: background statement; cited from earlier work
[3] = Chlamydia pneumoniae, 72 h, MIC range over the 11 Chlamydia pneumoniae strains, Hep-2 cells, 3 days, read-out: MIC
[4] = Chlamydia pneumoniae, ATCC2023, strain ATCC 2023, test I, read-out: MIC
[5] = Chlamydia pneumoniae, strain 1 (clinical isolate), test I, read-out: MIC
[6] = Chlamydia pneumoniae, strain 2 (clinical isolate), test I, read-out: MIC
[7] = Chlamydia pneumoniae, strain 2 (clinical isolate), test II, read-out: MIC
[8] = Chlamydia pneumoniae, strain 3 (clinical isolate), test I, read-out: MIC
[9] = Chlamydia pneumoniae, strain 3 (clinical isolate), test II, read-out: MIC
[10] = Chlamydia pneumoniae, strain 4 (clinical isolate), test II, read-out: MIC
[11] = Chlamydia pneumoniae, strain 5 (clinical isolate), test I, read-out: MIC
[12] = Chlamydia pneumoniae, strain 5 (clinical isolate), test II, read-out: MIC

MIC [1, 3] [µg/mL] | Compound | activity in vitro against Chlamydia pneumoniae [2] | MIC [1, 4] [µg/mL] | MIC [1, 5] [µg/mL] | MIC [1, 6] [µg/mL] | MIC [1, 7] [µg/mL] | MIC [1, 8] [µg/mL] | MIC [1, 9] [µg/mL] | MIC [1, 10] [µg/mL] | MIC [1, 11] [µg/mL] | MIC [1, 12] [µg/mL] | other results
> 16 | CC1(C)S[C@@H]2[C@H](NC(=O)[C@H](N)c3ccc(O)cc3)C(=O)N2[C@H]1C(=O)O [Amoxicillin, amoxicillin] | – | – | – | – | – | – | – | – | – | – | –
0.06 to 0.5 (≈ 0.0801 to 0.668 µM) | CC[C@H]1OC(=O)[C@H](C)[C@@H](O[C@H]2C[C@@](C)(OC)[C@@H](O)[C@H](C)O2)[C@H](C)[C@@H](O[C@@H]2O[C@H](C)C[C@H](N(C)C)[C@H]2O)[C@](C)(O)C[C@@H](C)CN(C)[C@H](C)[C@@H](O)[C@]1(C)O [Azithromycin, azithromycin] | active | 0.06 (≈ 0.0801 µM) | 0.5 (≈ 0.668 µM) | 0.06 (≈ 0.0801 µM) | 0.25 (≈ 0.334 µM) | 0.06 (≈ 0.0801 µM) | 0.06 (≈ 0.0801 µM) | 0.5 (≈ 0.668 µM) | 0.25 (≈ 0.334 µM) | 0.25 (≈ 0.334 µM) | MIC ([1]; Chlamydia pneumoniae, strain 4 (clinical isolate), test I, read-out: MIC): 0.5 µg/mL (≈ 0.668 µM); MIC ([1]; Chlamydia pneumoniae, strain 6 (clinical isolate), test II, read-out: MIC): 0.25 µg/mL (≈ 0.334 µM); MIC ([1]; Chlamydia pneumoniae, strain 7 (clinical isolate), test I, read-out: MIC): 0.25 µg/mL (≈ 0.334 µM); MIC ([1]; Chlamydia pneumoniae, strain 7 (clinical isolate), test II, read-out: MIC): 0.25 µg/mL (≈ 0.334 µM); MIC ([1]; Chlamydia pneumoniae, strain 8 (clinical isolate), test I, read-out: MIC): 0.25 µg/mL (≈ 0.334 µM); MIC ([1]; Chlamydia pneumoniae, strain 8 (clinical isolate), test II, read-out: MIC): 0.25 µg/mL (≈ 0.334 µM); MIC ([1]; Chlamydia pneumoniae, strain 9 (clinical isolate), test I, read-out: MIC): 0.5 µg/mL (≈ 0.668 µM); MIC ([1]; Chlamydia pneumoniae, strain TW 183, test II, read-out: MIC): 0.25 µg/mL (≈ 0.334 µM)
> 16 | CO/N=C(\C(=O)N[C@@H]1C(=O)N2C(C(=O)O)=C(CSc3nc(=O)c(=O)[nH]n3C)CS[C@H]12)c1csc(N)n1 [Ceftriaxone, ceftriaxone] | – | – | – | – | – | – | – | – | – | – | –

Compound | MIC [1, 3] [µg/mL] | activity in vitro against Chlamydia pneumoniae [2] | MIC [1, 4] [µg/mL] | MIC [1, 5] [µg/mL] | MIC [1, 6] [µg/mL] | MIC [1, 7] [µg/mL] | MIC [1, 8] [µg/mL] | MIC [1, 9] [µg/mL] | MIC [1, 10] [µg/mL] | MIC [1, 11] [µg/mL] | MIC [1, 12] [µg/mL] | other results
CC[C@H]1OC(=O)[C@H](C)[C@@H](O[C@H]2C[C@@](C)(OC)[C@@H](O)[C@H](C)O2)[C@H](C)[C@@H](O[C@@H]2O[C@H](C)C[C@H](N(C)C)[C@H]2O)[C@](C)(OC)C[C@@H](C)C(=O)[C@H](C)[C@@H](O)[C@]1(C)O [Clarithromycin, clarithromycin] | 0.03 to 0.25 (≈ 0.0401 to 0.334 µM) | active | 0.03 (≈ 0.0401 µM) | 0.03 (≈ 0.0401 µM) | 0.25 (≈ 0.334 µM) | 0.03 (≈ 0.0401 µM) | 0.03 (≈ 0.0401 µM) | 0.03 (≈ 0.0401 µM) | 0.06 (≈ 0.0802 µM) | 0.03 (≈ 0.0401 µM) | 0.03 (≈ 0.0401 µM) | MIC ([1]; Chlamydia pneumoniae): 0.125 µg/mL (≈ 0.167 µM); MIC ([1]; Chlamydia pneumoniae, ATCC2023, strain ATCC 2023, test II, read-out: MIC): 0.03 µg/mL (≈ 0.0401 µM); MIC ([1]; Chlamydia pneumoniae, strain 1 (clinical isolate), test II, read-out: MIC): 0.03 µg/mL (≈ 0.0401 µM); MIC ([1]; Chlamydia pneumoniae, strain 6 (clinical isolate), test I, read-out: MIC): 0.03 µg/mL (≈ 0.0401 µM); MIC ([1]; Chlamydia pneumoniae, strain 9 (clinical isolate), test II, read-out: MIC): 0.03 µg/mL (≈ 0.0401 µM); MIC ([1]; Chlamydia pneumoniae, strain TW 183, test I, read-out: MIC): 0.03 µg/mL (≈ 0.0401 µM); MIC ([1]; strain 4 (clinical isolate), test I): 0.125 µg/mL (≈ 0.167 µM); MIC ([1]; strain 7 (clinical isolate), test I): 0.125 µg/mL (≈ 0.167 µM); MIC ([1]; strain 7 (clinical isolate), test II): 0.125 µg/mL (≈ 0.167 µM); MIC ([1]; strain 8 (clinical isolate), test I): 0.125 µg/mL (≈ 0.167 µM); MIC ([1]; strain 8 (clinical isolate), test II): 0.125 µg/mL (≈ 0.167 µM); MIC ([1]; strain 9 (clinical isolate), test I): 0.125 µg/mL (≈ 0.167 µM); MIC ([1]; strain TW 183, test II): 0.125 µg/mL (≈ 0.167 µM)
